US8148366B2, “Substituted pyrazolo[3,4-E][diazepin-6-5(H)ones and analogues thereof, their preparation and their use as antibacterial medicaments” (Novexel SA, priority 2008, dated 2012)
≈ marks a conversion by molar mass, not a printed value.

Tested on: Pseudomonas aeruginosa (1771 Wild-type strain)
Assay: Activity in vitro, method of dilutions in liquid medium (M.I.C.)
Type: cell-based
Conditions: incubation 24 hours at 37° C., growth inhibition by transillumination; for MIC: read-out: MIC (μg/mL) 24 h (P, aerug, 1771)
Procedure: Activity in vitro, method of dilutions in liquid medium:
A series of tubes is prepared, into which the same quantity of sterile nutritive medium is distributed, increasing quantities of the product to be studied are distributed into each tube then each tube is seeded with a bacterial strain. After incubation for 24 hours in an oven at 37° C., growth inhibition is assessed by transillumination, which makes it possible to determine the minimum inhibitory concentrations (M.I.C.) expressed in μg/ml.
Tests are thus carried out with the products of Examples 1 to 19 in comparison with the products of Examples 11 of the Application WO 04/052891 and 18 of the Application WO 02/100860.

| Compound | MIC [µg/mL] | MIC (μg/mL) 24 h (P, aerug, 1771) [µg/mL] |
| --- | --- | --- |
| CC(N)CCNC(=O)n1cc2c(n1)[C@@H](CN)N1C[C@H]2N(OS(=O)(=O)O)C1=O (relative stereo) [Ex6, trans 8-(aminomethyl)-2-[(3-amino-butyl)carbamoyl]-4,8-dihydro-5-(sulphooxy)-4,7-methano-7H-pyrazolo[3,4-e][1,3] diazepin-6(5H)-one] | 4 (≈ 9.92 µM) | – |
| NC[C@@H]1c2nn(C(=O)NCC(N)=O)cc2[C@H]2CN1C(=O)N2OS(=O)(=O)O (relative stereo) [Ex7, trans 8-(aminomethyl)-2-(carbamoylmethyl-carbamoyl)-4,8-dihydro-5-(sulphooxy)-4,7-methano-7H-pyrazolo[3,4-e][1,3]diazepin-6(5H)-one] | 1 (≈ 2.57 µM) | – |
| CCNC(=O)n1cc2c(n1)[C@@H](CNC(=N)N)N1C[C@H]2N(OS(=O)(=O)O)C1=O (relative stereo) [Ex16, trans 8-(guanidino-methyl)-2-ethylcarbamoyl-4,8-dihydro-5-(sulphooxy)-4,7-methano-7H-pyrazolo[3,4-e][1,3] diazepin-6(5H)-one] | 16 (≈ 39.8 µM) | – |
| N=C(N)n1cc2c(n1)[C@@H](CN)N1C[C@H]2N(OS(=O)(=O)O)C1=O (relative stereo) [Ex10, trans 8-(aminomethyl)-2-(carbamimidoyl)-4,8-dihydro-5-(sulphooxy)-4,7-methano-7H-pyrazolo[3,4-e] [1,3]diazepin-6(5H)-one] | 0.5 (≈ 1.51 µM) | – |
| NC[C@@H]1c2nn(C(=O)N3CCCC3)cc2[C@H]2CN1C(=O)N2OS(=O)(=O)O (relative stereo) [Ex4, trans 8-(aminomethyl)-4,8-dihydro-2-(pyrrolidine-1-carbonyl)-5-(sulphooxy)-4,7-methano-7H-pyrazolo[3,4-e][1,3]diazepin-6(5H)-one] | 8 (≈ 20.7 µM) | – |
| CCNC(=O)n1ncc2c1[C@@H](CNC(=N)N)N1C[C@H]2N(OS(=O)(=O)O)C1=O (relative stereo) [Ex15, trans 8-(guanidino-methyl)-1-ethylcarbamoyl-4,8-dihydro-5-(sulphooxy)-4,7-methano-7H-pyrazolo[3,4-e][1,3]diazepin-6(5H)-one] | > 32 | – |
| NC[C@@H]1c2nn(C(=O)C3CCNCC3)cc2[C@H]2CN1C(=O)N2OS(=O)(=O)O (relative stereo) [Ex11, trans-8-(amino-methyl)-4,8-dihydro-2-(piperidine-4-carbonyl)-5-(sulphooxy)-4,7-methano-7H-pyrazolo[3,4-e][1,3]diazepin-6(5H)-one] | 0.25 (≈ 0.624 µM) | – |
| NC[C@@H]1c2nn(CCC(N)C(=O)O)cc2[C@H]2CN1C(=O)N2OS(=O)(=O)O (relative stereo) [Ex12, trans 8-(amino-methyl)-2-(3-amino-3-carboxy-propyl)-4,8-dihydro-5-(sulphooxy)-4,7-methano-7H-pyrazolo[3,4-e][1,3] diazepin-6(5H)-one] | 0.5 (≈ 1.28 µM) | – |
| Cn1ncc2c1[C@@H](CN)N1C[C@H]2N(OC(F)(F)C(=O)O)C1=O (relative stereo) [Ex18, trans 8-(amino-methyl)-4,8-dihydro-1-methyl-6-oxo-5-(carboxy-difluoro-methoxy)-4,7-methano-7H-pyrazolo[3,4-e][1,3] diazepin-6(5H)-one] | – | 0.5 (≈ 1.58 µM) |
| NC[C@@H]1c2nn(C(=O)N3CCNCC3)cc2[C@H]2CN1C(=O)N2OS(=O)(=O)O (relative stereo) [Ex2, trans 8-(aminomethyl)-2-(4-piperazine-1-carbonyl)-4,8-dihydro-5-(sulphooxy)-4,7-methano-7H-pyrazolo[3,4-e][1,3]diazepin-6(5H)-one] | – | 0.5 (≈ 1.25 µM) |
| N=C(N)n1ncc2c1[C@@H](CN)N1C[C@H]2N(OS(=O)(=O)O)C1=O (relative stereo) [Ex9] | – | 0.5 (≈ 1.51 µM) |
| CN(C)CCNC(=O)n1cc2c(n1)[C@@H](CN)N1C[C@H]2N(OS(=O)(=O)O)C1=O (relative stereo) [Ex3, trans 8-(aminomethyl)-4,8-dihydro-2-(2-dimethylaminoethylcarbamoyl)-5-(sulphooxy)-4,7-methano-7H-pyrazolo[3,4-e][1,3] diazepin-6(5H)-one] | 1 (≈ 2.48 µM) | – |
| N=C(N)NC[C@@H]1c2nn(C(N)=O)cc2[C@H]2CN1C(=O)N2OS(=O)(=O)O (relative stereo) [Ex17, trans 8-(guanidino-methyl)-2-carbamoyl-4,8-dihydro-5-(sulphooxy)-4,7-methano-7H-pyrazolo[3,4-e][1,3]diazepin-6(5H)-one] | 1 (≈ 2.67 µM) | – |
| trans 8-(aminomethyl)-2-amino-carbamoyl-4,8-dihydro-5-(sulphooxy)-4,7-methano-7H-pyrazolo[3,4-e][1,3]diazepin-6(5H)-one [Ex19] | – | 0.5 |
| N=C(N)NC[C@@H]1c2[nH]ncc2[C@H]2CN1C(=O)N2OS(=O)(=O)O (relative stereo) [Ex13, trans 8-(guanidino-methyl)-4,8-dihydro-5-(sulphooxy)-4,7-methano-7H-pyrazolo[3,4-e][1,3]diazepin-6(5H)-one] | 1 (≈ 3.02 µM) | – |
| NCCCNC(=O)n1cc2c(n1)[C@@H](CN)N1C[C@H]2N(OS(=O)(=O)O)C1=O (relative stereo) [Ex5, trans 8-(aminomethyl)-2-[(3-amino-propyl)carbamoyl]-4,8-dihydro-5-(sulphooxy)-4,7-methano-7H-pyrazolo[3,4-e][1,3] diazepin-6(5H)-one] | 0.5 (≈ 1.28 µM) | – |
